20 molecules from patent publication US20100137313A1 (ASTRAZENECA AB, priority 2008, published 2010) can be followed below.

Sequence of S. pneumoniae Topoisomerase IV ATPase (ParE) (Q59961 whole entry): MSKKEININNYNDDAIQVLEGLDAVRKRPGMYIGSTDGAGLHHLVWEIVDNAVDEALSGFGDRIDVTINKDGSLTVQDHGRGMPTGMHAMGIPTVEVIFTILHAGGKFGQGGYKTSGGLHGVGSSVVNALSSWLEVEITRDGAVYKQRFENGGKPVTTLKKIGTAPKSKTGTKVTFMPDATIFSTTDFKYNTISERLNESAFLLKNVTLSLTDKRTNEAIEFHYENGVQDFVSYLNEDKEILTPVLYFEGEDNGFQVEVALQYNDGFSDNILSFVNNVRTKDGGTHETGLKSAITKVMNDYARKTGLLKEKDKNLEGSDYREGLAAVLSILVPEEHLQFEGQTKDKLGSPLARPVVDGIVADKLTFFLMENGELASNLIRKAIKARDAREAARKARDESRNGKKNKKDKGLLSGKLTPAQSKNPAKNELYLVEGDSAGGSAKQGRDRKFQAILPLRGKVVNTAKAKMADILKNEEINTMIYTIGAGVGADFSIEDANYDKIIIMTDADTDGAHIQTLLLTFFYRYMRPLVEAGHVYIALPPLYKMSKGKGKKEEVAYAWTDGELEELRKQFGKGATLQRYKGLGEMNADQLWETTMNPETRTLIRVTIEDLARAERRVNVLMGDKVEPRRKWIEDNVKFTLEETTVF

For this test, the target named is S. pneumoniae Topoisomerase IV ATPase (ParE) (Streptococcus pneumoniae serotype 4, UniProt Q59961). Put plainly: S. pneumoniae Topoisomerase IV ATPase inhibition. The conditions noted are these: values marked * are an average of two or more data points, read-out: % Inh (13 μM) of S. pneumoniae Topoisomerase IV ATPase. It is filed as biochemical. In a few lines:
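ParE ATPase (1.25 nM) run with 160 μM ATP and 5 μg/ml sheared salmon sperm DNA in Tris pH 8.0, Mg2+, glycerol, DTT, Brij-35. Phosphate released read by malachite green/molybdate absorbance at 650 nm. IC50 from 10 compound concentrations; DMSO (2%) as 0% and EDTA (20 μM) as 100% inhibition.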
On to `O=C(O)/C=C/c1cccc(-c2cnc(Nc3ccc4c(c3)CCC4)nc2-n2ccc(C(F)(F)F)n2)c1` [Example 655, (2E)-3-(3-{2-(2,3-dihydro-1H-inden-5-ylamino)-4-[3-(trifluoromethyl)-1H-pyrazol-1-yl]pyrimidin-5-yl}phenyl)prop-2-enoic acid], for which the inhibition at 13 µM was 89%.
Turning to `Cc1cc(C(F)(F)F)nn1-c1nc(Nc2ccc3c(c2)CCC3)ncc1-c1cccc(/C=C/C(=O)O)c1` [Example 656, (2E)-3-(3-{2-(2,3-dihydro-1H-inden-5-ylamino)-4-[5-methyl-3-(trifluoromethyl)-1H-pyrazol-1-yl]pyrimidin-5-yl}phenyl)prop-2-enoic acid], the inhibition at 13 µM was 78%.
Regarding `O=C(O)/C=C/c1cccc(-c2cnc(Nc3ccc4c(c3)OCO4)nc2-n2ccc(C(F)(F)F)n2)c1` [Example 657, (2E)-3-(3-{2-(1,3-benzodioxol-5-ylamino)-4-[3-(trifluoromethyl)-1H-pyrazol-1-yl]pyrimidin-5-yl}phenyl)prop-2-enoic acid], the inhibition at 13 µM turned out to be 100%.
On to `Cc1cc(C(F)(F)F)nn1-c1nc(Nc2ccc3c(c2)OCO3)ncc1-c1cccc(/C=C/C(=O)O)c1` [Example 658, (2E)-3-(3-{2-(1,3-benzodioxol-5-ylamino)-4-[5-methyl-3-(trifluoromethyl)-1H-pyrazol-1-yl]pyrimidin-5-yl}phenyl)prop-2-enoic acid], for which the inhibition at 13 µM worked out at 96%.
For `COc1cc(Nc2ncc(-c3cccc(/C=C/C(=O)O)c3)c(-n3ccc(C(F)(F)F)n3)n2)cc(S(C)(=O)=O)c1` [Example 659, (2E)-3-[3-(2-{[3-methoxy-5-(methylsulfonyl)phenyl]amino}-4-[3-(trifluoromethyl)-1H-pyrazol-1-yl]pyrimidin-5-yl)phenyl]prop-2-enoic acid], the inhibition at 13 µM amounted to 100%.
As for `Cc1ccc(S(=O)(=O)n2ccc3cc(Nc4ncc(-c5cncc(C(=O)O)c5)c(-n5nc(C(F)(F)F)cc5C)n4)ccc32)cc1` [Example 667, 5-{2-({1-[(4-methylphenyl)sulfonyl]-1H-indol-5-yl}amino)-4-[5-methyl-3-(trifluoromethyl)-1H-pyrazol-1-yl]pyrimidin-5-yl}pyridine-3-carboxylic acid], the figure is 56%; as for `O=C(O)c1cncc(-c2cnc(Nc3ccc4c(c3)CCC4)nc2-n2ccc(C(F)(F)F)n2)c1` [Example 668, 5-{2-(2,3-dihydro-1H-inden-5-ylamino)-4-[3-(trifluoromethyl)-1H-pyrazol-1-yl]pyrimidin-5-yl}pyridine-3-carboxylic acid], 85%.
As for `Cc1cc(C(F)(F)F)nn1-c1nc(Nc2ccc3c(c2)CCC3)ncc1-c1cncc(C(=O)O)c1` [Example 669, 5-{2-(2,3-dihydro-1H-inden-5-ylamino)-4-[5-methyl-3-(trifluoromethyl)-1H-pyrazol-1-yl]pyrimidin-5-yl}pyridine-3-carboxylic acid], the figure is 68%; as for `O=C(O)c1cncc(-c2cnc(Nc3ccc4c(c3)OCO4)nc2-n2ccc(C(F)(F)F)n2)c1` [Example 670, 5-{2-(1,3-benzodioxol-5-ylamino)-4-[3-(trifluoromethyl)-1H-pyrazol-1-yl]pyrimidin-5-yl}pyridine-3-carboxylic acid], 100%.
With `Cc1cc(C(F)(F)F)nn1-c1nc(Nc2ccc3c(c2)OCO3)ncc1-c1cncc(C(=O)O)c1` [Example 671, 5-{2-(1,3-benzodioxol-5-ylamino)-4-[5-methyl-3-(trifluoromethyl)-1H-pyrazol-1-yl]pyrimidin-5-yl}pyridine-3-carboxylic acid], the inhibition at 13 µM worked out at 92%.
As for `COc1cc(Nc2ncc(-c3cncc(C(=O)O)c3)c(-n3ccc(C(F)(F)F)n3)n2)cc(S(C)(=O)=O)c1` [Example 672, 5-(2-{[3-methoxy-5-(methylsulfonyl)phenyl]amino}-4-[3-(trifluoromethyl)-1H-pyrazol-1-yl]pyrimidin-5-yl)pyridine-3-carboxylic acid], the figure is 100%; as for `COc1cc(Nc2ncc(-c3cncc(C(=O)O)c3)c(-n3nc(C(F)(F)F)cc3C)n2)cc(S(C)(=O)=O)c1` [Example 673, 5-(2-{[3-methoxy-5-(methylsulfonyl)phenyl]amino}-4-[5-methyl-3-(trifluoromethyl)-1H-pyrazol-1-yl]pyrimidin-5-yl)pyridine-3-carboxylic acid], 100%.
As to `COc1cc(Nc2ncc(-c3cnc(OC)c(C(=O)O)c3)c(-n3ccc(C(F)(F)F)n3)n2)cc(OC)c1` [Example 675, 5-{2-[(3,5-dimethoxyphenyl)amino]-4-[3-(trifluoromethyl)-1H-pyrazol-1-yl]pyrimidin-5-yl}-2-methoxypyridine-3-carboxylic acid], the inhibition at 13 µM was 100%.
For `COc1cc(Nc2ncc(-c3cnc(OC)c(C(=O)O)c3)c(-n3nc(C(F)(F)F)cc3C)n2)cc(OC)c1` [Example 677, 5-{2-[(3,5-dimethoxyphenyl)amino]-4-[5-methyl-3-(trifluoromethyl)-1H-pyrazol-1-yl]pyrimidin-5-yl}-2-methoxypyridine-3-carboxylic acid], the inhibition at 13 µM was 100%.
For `CNC(=O)c1cncc(-c2cnc(Nc3cc(OC)cc(OC)c3)nc2-n2ccc(C(F)(F)F)n2)c1` [Example 678, 5-{2-[(3,5-dimethoxyphenyl)amino]-4-[3-(trifluoromethyl)-1H-pyrazol-1-yl]pyrimidin-5-yl}-N-methylpyridine-3-carboxamide], the inhibition at 13 µM was 100%.
As for `CONC(=O)c1cncc(-c2cnc(Nc3cc(OC)cc(OC)c3)nc2-n2ccc(C(F)(F)F)n2)c1` [Example 680, 5-{2-[(3,5-dimethoxyphenyl)amino]-4-[3-(trifluoromethyl)-1H-pyrazol-1-yl]pyrimidin-5-yl}-N-methoxypyridine-3-carboxamide], the figure is 100%; as for `CONC(=O)c1cncc(-c2cnc(Nc3cc(OC)cc(OC)c3)nc2-n2nc(C(F)(F)F)cc2C)c1` [Example 681, 5-{2-[(3,5-dimethoxyphenyl)amino]-4-[5-methyl-3-(trifluoromethyl)-1H-pyrazol-1-yl]pyrimidin-5-yl}-N-methoxypyridine-3-carboxamide], 100%.
Take `COc1cc(Nc2ncc(-c3cncc(C(=O)NCCO)c3)c(-n3ccc(C(F)(F)F)n3)n2)cc(OC)c1` [Example 682, 5-{2-[(3,5-dimethoxyphenyl)amino]-4-[3-(trifluoromethyl)-1H-pyrazol-1-yl]pyrimidin-5-yl}-N-(2-hydroxyethyl)pyridine-3-carboxamide]: the inhibition at 13 µM is 100%.
For `COc1cc(Nc2ncc(-c3cncc(C(=O)NCCO)c3)c(-n3nc(C(F)(F)F)cc3C)n2)cc(OC)c1` [Example 683, 5-{2-[(3,5-dimethoxyphenyl)amino]-4-[5-methyl-3-(trifluoromethyl)-1H-pyrazol-1-yl]pyrimidin-5-yl}-N-(2-hydroxyethyl)pyridine-3-carboxamide] the value was 100%; for `COc1cc(Nc2ncc(-c3cncc(C(=O)NCCS(C)(=O)=O)c3)c(-n3ccc(C(F)(F)F)n3)n2)cc(OC)c1` [Example 684, 5-{2-[(3,5-dimethoxyphenyl)amino]-4-[3-(trifluoromethyl)-1H-pyrazol-1-yl]pyrimidin-5-yl}-N-[2-(methylsulfonyl)ethyl]pyridine-3-carboxamide], 100%.
